Where two headings read alike, the source gives them in different places.
Columns and labels:
breast cancer cell lines = test: Survival of breast cancer cell lines, methylene blue staining assay (FIG. 24); assay type: cell-based, human; conditions: for performance against breast cancer cell lines, compared with lansoprazole: non-FDA-approved PPIs, different breast cancer cell lines; for activity in suppressing breast cancer cell survival, compared with lansoprazole: lansoprazole metabolites, MCF7, MDA-MB-231, MDA-MB-468 cells
From the text: (§1) FIG. 24. […] Actin was used as a loading control. D. effect of non-approved PPIs on the survival of breast cancer cell lines.

M/FASN cells = test: MTT survival assay, M/FASN cells; assay type: cell-based, human
Experimental: FIG. 5. PARP-1 mediates FASN-associated DNA repair and genotoxic treatment resistance. A-B, Effect of FASN on PARP-1 expression as determined by Western blot (A) and real-time RT-PCR (B) in stable FASN-over-expressing and -knockdown cells. C, Effect of FASN on IR-induced histone-H3 PARylation. Cells were pre-treated without or with 0.5 μM olaparib followed by treatment with or without IR and harvested at different times following IR for lysate preparation, immunoprecipitation of histone-H3 in the presence of 100 μM PARG inhibitor, gallotannin, and Western blot analyses of PARylated and total histone H3. D, Effect of PARP-1 knockdown on FASN-induced NHEJ up-regulation. FASN-over-expressing (P/FASN) and the control (P/Vec) cells were transiently transected with PARP-1 or scrambled control siRNA followed by Western blot analysis of PARP-1 (left panel) and NHEJ activity assay (right panel) (n=3, *p<0.05; **p<0.01). E, Effect of PARP-1 inhibition on survival. M/FASN cells were treated with 1 mM 3-ABA, 0.5 μM olaparib, or their vehicle control for 48 hours followed by MTT assay. F, Effect of PARP-1 inhibition on doxorubicin resistance. M/FASN cells were pre-treated for 6 hours by 1 mM 3-ABA, 0.5 μM olaparib, or transfected with control or PARP-1 siRNA followed by tested doxorubicin resistance using MTT survival assay. (n=3-4, *p<0.05, **p<0.01).
To determine if FASN enhancement of PARP-1 likely mediates FASN function in cellular resistance to DNA damages, a survival assay of […] cells following doxorubicin treatment in the absence or presence of PARP-1 inhibitors, 3-ABA (3-aminobenzamide) or olaparib was carried out. Now referring to FIG. 5E, either 1 mM 3-ABA or 0.5 μM olaparib alone had no effect on M/FASN cell survival.
MTT survival assay was performed as previously described (see e.g., Yang Y, Chen Q, & Zhang J T (2002) Structural and functional consequences of mutating cysteine residues in the amino terminus of human multidrug resistance-associated protein 1. J. Biol. Chem. 277(46):44268-44277). Briefly, cells in 96-well plate were cultured for 24 hours and treated with various concentrations of doxorubicin, bleomycin, cisplatin or H2O2 continuously for 3 days followed by addition of thiazolyl blue tetrazolium bromide (MTT) to a final concentration of 0.5 mg/mL and incubation at 37° C. for 4 hours. Medium was then removed and formazan was solubilized in dimethyl sulfoxide and the OD570 was measured by a Synergy H1 hybrid reader (BioTek, Winooski, Vt.). IC50's were obtained from the fitted curves generated by GraphPad Prism 5.0 program (GraphPad Software, Inc.). Relative resistance factor (RRF) is calculated using the formula RRF=IC50 (test)/IC50 (control) with control normalized as 1. […]

breast cancer patients = test: Retrospective survival analysis of electronic medical records of breast cancer patients; assay type: in vivo, human
Experimental: FIG. 16. Retrospective survival analysis of breast cancer patients with or without use of proton pump inhibitors (PPIs). De-identified electronic medical records of 6,752 breast cancer patients were retrieved from the database of Indiana Network for Patient Care (INPC) and subjected to Kaplan-Meier survival analysis in association with PPI usage in all patients (A) or in triple negative breast cancer patient subgroup (B). The p-value and hazard ratio (HR) were calculated from Cox proportional hazard models, which were adjusted for age, tumor stage, and time of first diagnosis.
Because PPIs are widely used for treatment of a variety of acid-related digestive disorders, many cancer patients may use PPIs without the knowledge that the combination of PPIs with their chemotherapy may have helped them. To this end, a retrospective association analysis was conducted using de-identified electronic medical records (EMR) of 6,752 breast cancer patients from Indiana Network for Patient Care (INPC). The average age at diagnosis is 58.9 years (range 19-102) and average age at death or last visit is 61.5 (range 21-104). Of this cohort, 534 patients took one or more PPIs after diagnosis as recorded in the EMR. There are 488 triple negative breast cancer (TNBC) patients, among them 35 used PPIs. Using the Cox proportional hazard regression model, the patient overall survival was analyzed against PPI usage. […] The protective effect of PPIs on patient survival was adjusted for age, tumor stage, and time of first diagnosis.
The patient database contains three domains of electronic medical records (EMR) of 6,752 de-identified breast cancer patients from Indiana Network for Patient Care (INPC). The first domain contains patient characteristics as shown in Supplemental Table 51. The second domain contains medical test results including body weight, blood tests, and office visit information. The third domain contains prescription information for each patient. The use of this database has been approved by IRB at Indiana University for this study.
The first task is to remove null and duplicated values and to resolve contradicting records. For patients that have contradicting records, different rules for different conflicts were followed. For conflicts on the first visit or diagnosis time, the earlier record at younger age were used as the first diagnosis and considered the later one as system update. For all other information including diagnosis information such as cancer subtype, the latest record was used as it is thought to be more accurate.
Next, the plain text information from the first domain of the database including but not limited to ER, PR, and HER2 test results, treatment plans, and therapy types were digitized. The record that is not clear was marked as unknown. For example, the HER2 status with a 2+ score, a borderline score, from IHC staining was usually confirmed with FISH test. Patients with a 2+ score but without a FISH test result were considered unknown in this study.
Further, the days of patient survival from data in the first domain were validated using prescription history of the same patient in the third domain of the database. When there is a conflict, the last day of office visit or prescription refill, whichever is later, was recorded as the last day of visit or death. Moreover, patients who took PPIs prior to their diagnosis of breast cancer but stopped taking them after diagnosis were considered non-PPI users in this study.

PARP1 and γ-H2AX = test: Western blot of PARP1 and γ-H2AX (FIG. 24C); assay type: cell-based; conditions: dose-dependent
Experimental: as §1
Cells were harvest and then lysed in TNN buffer with 1 mM DTT, 1 mM PMSF and 0.1% SDS for 30 min at 4° C. with occasional agitation. The cells were sonicated briefly and total proteins were harvested after centrifugation of the lysate at 16,000 g for 15 minutes at to remove cell debris. The protein concentration of cell lysates was determined using a Bio-Rad protein assay kit. Total cell lysates were then separated by SDS-PAGE, transferred to a polyvinylidene fluoride membrane, and probed using antibodies against fatty acid synthase (610963, BD biosciences), PARP-1 (46D11, CST), γ-H2AX (05-636, Millipore), and (3-Actin (A2228, Sigma). The blot was then probed with horseradish peroxidase-conjugated secondary antibodies (Sigma) and signals were captured on X-ray films following developing with Amersham ECL Western Blotting Detection Reagent (RPN2106, GE).

MCF7 cells = test: Colony formation survival assay, MCF7 cells; assay type: cell-based, human; conditions: Homo sapiens
Experimental: FIG. 15. […] B. Combination index. Combination index (CI) was derived using the data shown in A and the formula: […]
For each potency ratio, combination index of three effective concentrations at IC30, IC50, and IC70 were calculated for synergistic effects using Prism 7.0.
Cells were then harvested and re-plated in 6-well plates at a density of 200 cells/well followed by IR treatment at different doses and colony formation assay or collection of cells for Western blot analysis. Concentration-response curves and IC50 values were calculated using Prism 7.0 (GraphPad, La Jolla, USA).

[1] = pairwise versus Lansoprazole users, all patients
[2] = pairwise versus Omeprazole users, all patients
[3] = pairwise versus Pantoprazole users, all patients
[4] = single-PPI users versus No PPI, all breast cancer patients
[5] = versus Lansoprazole, CA patients
[6] = versus No PPI, Caucasian (CA) patients
[7] = versus Pantoprazole, CA patients
[8] = versus Lansoprazole, AA patients
[9] = versus No PPI, African American (AA) patients

Molecule: COc1ccc2[nH]c([S+]([O-])Cc3ncc(C)c(OC)c3C)nc2n1 (stereo not shown) [tenatoprazole]
- performance against breast cancer cell lines, compared with lansoprazole (breast cancer cell lines): performed better than lansoprazole only against some cell lines

Molecule: NC(=O)c1cccc(N)c1 [3-ABA, 3-aminobenzamide]
- effect on M/FASN cell survival (M/FASN cells; 1 mM 3-ABA or 0.5 μM olaparib alone, 48 hours): no effect
- doxorubicin resistance level of M/FASN cells (M/FASN cells; pre-treated for 6 hours by 1 mM 3-ABA or 0.5 μM olaparib): significantly reduced

Molecule: COCCCOc1ccnc(C[S+]([O-])c2nc3ccccc3[nH]2)c1C (stereo not shown) [rabeprazole]
- HR (CoxPH ratio), overall survival (breast cancer patients; [1]): 2.13
- HR (CoxPH ratio), overall survival (breast cancer patients; [2]): 1.50
- HR (CoxPH ratio), overall survival (breast cancer patients; [3]): 1.43
- HR (CoxPH ratio), overall survival (breast cancer patients; [4]): 0.47
- HR, overall survival (breast cancer patients; [5]): 1.99
- HR, overall survival (breast cancer patients; [6]): 0.5031
- HR, overall survival (breast cancer patients; versus Omeprazole, CA patients): 1.77
- HR, overall survival (breast cancer patients; [7]): 2.57

Molecule: COc1ccnc(C[S+]([O-])c2nc3ccc(OC(F)F)cc3[nH]2)c1OC (stereo not shown) [pantoprazole]
- HR (CoxPH ratio), overall survival (breast cancer patients; [1]): 1.43
- HR (CoxPH ratio), overall survival (breast cancer patients; [2]): 1.11
- HR (CoxPH ratio), overall survival (breast cancer patients; [4]): 0.32
- HR, overall survival (breast cancer patients; [8]): 9.89*10^8
- HR, overall survival (breast cancer patients; [5]): 0.59
- HR, overall survival (breast cancer patients; [9]): 0.59
- HR, overall survival (breast cancer patients; [6]): 0.18
- HR, overall survival (breast cancer patients; versus Omeprazole, AA patients): 1.85
- HR, overall survival (breast cancer patients; versus Omeprazole, CA patients): 0.66

Molecule: Cc1c(OCC(F)(F)F)ccnc1CS(=O)(=O)c1nc2ccccc2[nH]1 [lansoprazole sulfone]
- activity in suppressing breast cancer cell survival, compared with lansoprazole (breast cancer cell lines): lost their activity

Molecule: anaprazole
- performance against breast cancer cell lines, compared with lansoprazole (breast cancer cell lines): performed better than lansoprazole only against some cell lines

Molecule: COc1ccc2nc([S@@+]([O-])Cc3ncc(C)c(OC)c3C)[nH]c2c1 [Esomeprazole, esomeprazole]
- HR (CoxPH ratio), overall survival (breast cancer patients; [1]): 2.57
- HR (CoxPH ratio), overall survival (breast cancer patients; [2]): 1.6
- HR (CoxPH ratio), overall survival (breast cancer patients; [3]): 1.44
- HR (CoxPH ratio), overall survival (breast cancer patients; pairwise versus Rabeprazole users, all patients): 0.92
- HR (CoxPH ratio), overall survival (breast cancer patients; [4]): 0.44
- HR, overall survival (breast cancer patients; [8]): 7.79*10^7
- HR, overall survival (breast cancer patients; [5]): 1.74
- HR, overall survival (breast cancer patients; [9]): 0.49
- HR, overall survival (breast cancer patients; [6]): 0.35
- HR, overall survival (breast cancer patients; versus Omeprazole, AA patients): 1.47
- HR, overall survival (breast cancer patients; versus Pantoprazole, AA patients): 0.84
- HR, overall survival (breast cancer patients; [7]): 2.08
- HR, overall survival (breast cancer patients; versus Rabeprazole, CA patients): 0.66

Molecule: Cc1c(OCC(F)(F)F)ccnc1CSc1nc2ccccc2[nH]1 [lansoprazole sulfide]
- activity in suppressing breast cancer cell survival, compared with lansoprazole (breast cancer cell lines): lost their activity

Molecule: Cc1c(OCC(F)(F)F)ccnc1C[S+]([O-])c1nc2ccc(O)cc2[nH]1 (stereo not shown) [5-hydroxy lansoprazole]
- activity in suppressing breast cancer cell survival, compared with lansoprazole (breast cancer cell lines): lost their activity

Molecule: Cc1c(OCC(F)(F)F)ccnc1CSc1nc2cc(O)ccc2[nH]1 [5-hydroxy lansoprazole sulfide]
- suppression of triple negative breast cancer cell survival, compared with lansoprazole (breast cancer cell lines; triple negative breast cancer cell lines): significantly more effective than lansoprazole
- PARP1 expression (PARP1 and γ-H2AX): inhibited PARP1 expression
- production of γ-H2AX (PARP1 and γ-H2AX): induced production of γ-H2AX in a dose-dependent manner

Molecule: COc1ccc2[nH]c([S+]([O-])Cc3ncc(C)c(OC)c3C)nc2c1 (stereo not shown) [omeprazole]
- IC50 (MCF7 cells; MCF7, read-out: IC50, cell survival, single agent, MCF7 cells, colony formation): 3100 nM
- IC50 (MCF7 cells; MCF7, read-out: IC50 of omeprazole in the presence of olaparib, in the presence of 0.1 μM olaparib, MCF-7 cells): 1000 nM
- IC50 (MCF7 cells; MCF7, read-out: IC50 of omeprazole in the presence of olaparib, in the presence of 0.3 μM olaparib, MCF-7 cells): 400 nM
- HR (CoxPH ratio), overall survival (breast cancer patients; [4]): 0.28
- HR, overall survival (breast cancer patients; [9]): 0.33
- HR, overall survival (breast cancer patients; [6]): 0.27

Source: patent US11491147B2, “Combination drug therapy reduces PARP-1 related DNA repair and increases the efficacy of genotoxic agents” (Indiana University Research and Technology Corporation, priority 2016, dated 2022)
